From patent EP3636645A1, “PROCESS FOR THE PREPARATION OF SULFUR-SUBSTITUTED PYRIDINE DERIVATIVES” (Bayer Aktiengesellschaft, priority 2018, dated 2020)

Assay: physchem
Assay type: physicochemical
Protocol: Die Bestimmung der logP-Werte erfolgte gemäß EEC Directive 79/831 Annex V.A8 durch HPLC (High Performance Liquid Chromatography) an einer Phasenumkehrsäule (C18) mit Hilfe folgender Methoden: Der logP[a] Wert wird durch LC-UV Messung im sauren Bereich bestimmt, mit 0,9 mL/L Ameisensäure in Wasser und 1,0 mL/L Ameisensäure in Acetonitril als Eluenten (linearer Gradient von 10% Acetonitrile bis 95% Acetonitril).
Der logP[n] Wert wird durch LC-UV Messung im neutralen Bereich bestimmt, mit 79 mg/L Ammoniumcarbonat in Wasser und Acetonitril als Eluenten (linearer Gradient von 10% Acetonitril bis 95% Acetonitril).
Die Kalibrierung wurde mit einer homologen Reihe geradkettiger Alkan-2-one (mit 3 bis 16 Kohlenstoffatomen) mit bekannten logP Werten durchgeführt. Die Werte zwischen aufeinanderfolgender Alkanone werden durch lineare Regression bestimmt.

chromatographic logP (hplc c18, acidic formic acid): 3
chromatographic logP (hplc c18, ammonium carbonate): 2.97
Compound: Cn1c(-c2ncccc2SC(F)(F)F)nc2cc(C(F)(F)F)ncc21 [Beispiel 1, 3-Methyl-6-(trifluormethyl)-2-{3-[(trifluormethyl)sulfanyl]pyridin-2-yl}-3H-imidazo [4,5-c] pyridin]
